According to patent US6448027B1, “Method for specific measurement of acid phosphatase derived from osteoclasts” (FALCO biosystems Ltd., priority 1999, dated 2002):

What was measured:
[1] = system: Band 5b tartrate-resistant acid phosphatase; assay: Effects of other materials on Band 5b TrACP activity in serum of healthy subjects; assay type: biochemical, human; details: for Band 5b TrACP activity (%): control activity taken as 100%, serum of healthy subjects; for Effect of addition on Band 5b tartrate-resistant acid phosphatase activity: summary in words of Table 1, 1-10 mmol/L
Procedure: (1) Formulation of Compositions
(a) A Composition Comprising Tartaric Acid and Heparin (Reaction Buffer Solution 1)
(b) A composition comprising tartaric acid, heparin and fluoride (reaction buffer solution 2)
(2) Measurement (an Example Using Conventional Automatic Analyzer, Cobas® Fara, Baxter Ltd.)
(§1) To a cuvette is added 150 µl of reaction buffer solution 1 or reaction buffer solution 2 and, after 20 seconds, 15 µl of sample (serum) is added. The mixture is incubated at 37° C. for 5 minutes and then 60 µl of the substrate solution is added to start the enzyme reaction (the reaction mixture is 15 times as much as the amount of the sample (=(150 μ1+15 μ1+60 μ1)/15 μ1). The change in absorbance at 340 nm is monitored at 20 seconds intervals for 5 minutes. The amount of change in absorbance per one minute (the amount of change in absorbance in the enzyme reaction per unit time) is obtained from a linear part of the change in absorbance. The amount of change in absorbance per one minute in blank is obtained by the same procedure as the above except for adding physical saline or purified water instead of the sample.
The activity of osteoclast-derived acid phosphatase located at Band 5b is obtained by subtracting the activity value obtained by using the composition comprising tartaric acid, heparin and fluoride of the reaction buffer solution 2 from the activity value obtained by using the composition comprising tartaric acid and the inhibitor to acid phosphatases located at Band 5 other than Band 5b (in Examples, heparin is used) of the reaction buffer solution 1. […] The concentration, formulation, amount and the like of the above composition are adjusted according to a particular kind of automatic analyzer and measurement (kind and concentration of the substrate and the like) used.
(§2) Activity (U/L)=[(amount of change in absorbance per unit time in enzyme reaction−amount of change in absorbance in blank)×liquid amount on enzyme reaction×10^6]÷[sample amount×molar absorbance coefficient×cell optical path length]

[2] = system: Band 5b tartrate-resistant acid phosphatase; details: read-out: Km value for DCAPP of Band 5b tartrate-resistant acid phosphatase activity; substrate DCAPP
Procedure: as §1, with “sample. […]” for “sample.”
as §2

[3] = target: T1, Band 5a tartrate-resistant acid phosphatase (Homo sapiens, UniProt P13686); assay: Effect of heparin on Band 5a tartrate-resistant acid phosphatase (CM-Sepharose peak III); assay type: biochemical
T1 construct: These fractions containing peak III and IV were used as Band 5a and Band 5b tartrate-resistant acid phosphatase, respectively; from tissue; host or cells: children's serum, CM-Sepharose cation-exchange fraction (peak III)
T1 sequence (P13686 22-325): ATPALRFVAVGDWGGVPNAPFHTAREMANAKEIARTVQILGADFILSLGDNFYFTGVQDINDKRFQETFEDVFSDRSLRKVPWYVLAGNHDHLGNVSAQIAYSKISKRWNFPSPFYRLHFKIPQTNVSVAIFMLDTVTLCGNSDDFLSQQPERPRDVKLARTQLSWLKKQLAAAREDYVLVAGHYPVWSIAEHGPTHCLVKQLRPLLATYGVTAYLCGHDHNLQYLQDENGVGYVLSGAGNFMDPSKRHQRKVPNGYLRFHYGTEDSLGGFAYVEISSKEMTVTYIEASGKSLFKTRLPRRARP
Procedure: (§3) The CM-Sepharose was packed into glass tubing (0.9 cm i.d.; length, 60 cm) and washed with acetate buffer (10 mmol/L, pH 5.0). The serum sample (children's serum, 5 ml) was adjusted to pH 5.0 by adding acetic acid and the coagulated proteins were removed by centrifugation at 20,000×g for 15 minutes. The supernatant fraction was passed through the column at 0.5 ml/minute. The enzyme, which was retained on the column, was then eluted with a liner gradient of sodium chloride: 0 to 1 mol/L in elution buffer (299 ml, acetate buffer, 10 mmol/L, pH 5.0). The fractionated serum was subjected to the method described in the above general method to measure tartrate-resistant fluoride-sensitive acid phosphatase activity (the value obtained by subtracting the value obtained with measurement solution 2 from the value obtained with measurement solution 1). Acid phosphatase activity was measured similarly by using measurement solution added polybrene which was antagonist of heparin instead of heparin.
These fractions containing peak III and IV were used as Band 5a and Band 5b tartrate-resistant acid phosphatase, respectively, in the following Examples. […]
Tartrate-resistant fluoride-sensitive acid phosphatase activity was measured using Band 5a and 5b tartrate-resistant acid phosphatases separated by CM-Sepharose to determine the effect of pH on activity. […]

bone extract = assay: Effect of heparin on bone extract acid phosphatase activity; assay type: biochemical; details: FIG. 3; bovine tibia extract
Procedure: Bone extract was prepared according to the method described in Nakanishi, M., Yoh, K., Uchida, K., Maruo, S., Matuoka, A., Clin. Chem., 1998, 44, 221-225. Bovine tibia after removal of soft tissue was cut into small cubes. The marrow and blood were removed, pulverized and homogenized in a solution containing Triton x-100, potassium chloride, phenylmethylsulfonyl fluoride, benzamidine and aminocaproic acid. The extract was collected by centrifugation at 10,000×g for 20 minutes at 4° C. and stored at −80° C. until use.

serum = assay: Effect of heparin on serum acid phosphatase activity; assay type: biochemical, human; details: FIG. 3
Procedure: Blood samples collected from 516 healthy subjects aged 5 to 79 years (210 males and 306 females) were coagulated at room temperature for 2 to 4 hours and centrifuged at 1,000×g at room temperature for 10 minutes. Serum thus separated was transferred into 1.5 ml tubes and stored at −80° C. until use.

[4] = system: tartrate-resistant fluoride-sensitive acid phosphatases other than Band 5b; assay: TrFsACP activity of CM-Sepharose fractions of serum with heparin or polybrene in the reaction buffer; assay type: biochemical, human; details: CM-Sepharose fractions of children's serum; FIG. 1
Procedure: Using CM-Sepharose, Band 5a and Band 5b tartrate-resistant acid phosphatase were separated and collected.
as §3
When polybrene was added to the reaction buffer, at least four peaks of tartrate-resistant fluoride-sensitive acid phosphatase activity were observed (FIG. 1, I, II, III and IV). But only one peak (IV) was observed when heparin was added to the reaction buffer. […]

[5] = compound 1 mmol/L in reaction buffer solution
[6] = compound 5 mmol/L in reaction buffer solution
[7] = compound 10 mmol/L in reaction buffer solution

Molecule	Band 5b TrACP activity (%) [1, 5]	Band 5b TrACP activity (%) [1, 6]	Band 5b TrACP activity (%) [1, 7]	Effect of addition on Band 5b tartrate-resistant acid phosphatase activity [1]	Km [2]	Effect of heparin on Band 5a tartrate-resistant acid phosphatase ([3]; FIG. 3)	Band 5a tartrate-resistant acid phosphatase activity after addition of heparin ([3]; pH 6.6, 0.05% heparin in reaction mixture, FIG. 4)	Effect of heparin on bone extract (bone extract)	Effect of heparin on serum (serum)	Effect of heparin on tartrate-resistant fluoride-sensitive acid phosphatases other than Band 5b [4]
O[C@H](CS)[C@H](O)CS (racemic) [Dithiothreitol]	93%	69%	57%	inhibited enzyme activity	–	–	–	–	–	–
O=C1O[C@H]([C@@H](O)CO)C(O)=C1O [Ascorbic acid]	97%	103%	103%	no effect	–	–	–	–	–	–
CC(=O)c1cc(Cl)c(OP(=O)(O)O)c(Cl)c1 [DCAPP, 2,6-dichloro-4-acetylphenyl phosphate]	–	–	–	–	4.7 mM	–	–	–	–	–
O=C(O)CN(CCN(CC(=O)O)CC(=O)O)CC(=O)O [EDTA]	95%	96%	93%	no effect	–	–	–	–	–	–
heparin	–	–	–	–	–	significantly inhibited	zero level	slightly inhibited	slightly inhibited	inhibits
